This experiment in a line: killing of EWS/Fli1-dependent TC71 cells, confirmation, cell-based, luminescence, retest at dose, dry powder (AID 743477). To be noted: TC71 Ewing sarcoma viability, CellTiter-Glo ATP, 72 h; at 26 µM (top of the series). (In ATP-based viability assays light output follows the ATP content of the culture.)

Data on one compound can be found in PubChem BioAssay AID743477 (Broad Institute, 2014).

Calls of active or inactive are those of the source.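 Rule for the calls: active = fitted curve drops to -35% activity change at a dose no higher than twice the top valid tested dose; inconclusive = no clear call, values can overlap the other calls; inactive = the rest, including effects opposite to the expected drop.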

On to `CCC(C)(C)C(=O)O[C@H]1C[C@@H](C)C=C2C=C[C@H](C)[C@H](CC[C@@H]3C[C@@H](O)CC(=O)O3)[C@H]21`, for which the activity change, negative = cytotoxicity was -7.31% (inactive).
